Laboratory results published in article PMC10247784, “Physiological activation of human and mouse bitter taste receptors by bile acids” (Communications Biology, 2023).
“And” between values parts separate entries of the source, which are not always exact repeats. Equal values may be shown once.

Biological target: T1, human TAS2R14 (Homo sapiens, UniProt Q9NYV8)
T1 construct: expressed in transfected cells; host or cells: HEK293T-Gα16gust44
T1 sequence (Q9NYV8 1-317): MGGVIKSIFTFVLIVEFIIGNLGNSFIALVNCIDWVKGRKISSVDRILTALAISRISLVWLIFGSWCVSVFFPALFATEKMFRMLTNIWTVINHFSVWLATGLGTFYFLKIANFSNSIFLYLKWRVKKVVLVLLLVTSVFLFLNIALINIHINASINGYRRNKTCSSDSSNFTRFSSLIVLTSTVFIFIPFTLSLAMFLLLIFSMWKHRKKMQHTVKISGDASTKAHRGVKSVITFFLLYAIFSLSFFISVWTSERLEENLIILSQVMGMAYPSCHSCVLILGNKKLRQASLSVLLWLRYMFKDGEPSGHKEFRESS
Assay: Calcium imaging assay (FLIPR), HEK293T-Gα16gust44 cells transfected with human TAS2R14
Assay type: cell-based
Settings: for RLU: TAS2R14 trace
How it was run: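 Fluo-4 calcium responses; ΔF/F corrected for mock transfection and buffer control; triplicate independent dose-response runs; p < 0.01 threshold.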

C[C@H](CCC(=O)NCCS(=O)(=O)O)[C@H]1CC[C@H]2[C@@H]3CC[C@@H]4C[C@H](O)CC[C@]4(C)[C@H]3CC[C@]12C [Taurolithocholic Acid, taurolithocholic acid]
Efficacy = maximal amplitude (ΔF/F) (TAS2R14, bile acids, mean): 0.07188 | Efficacy (maximal amplitude ΔF/F), individual data points (TAS2R14, bile acids, single replicates, listed as TLCA): 0.06981 and 0.08988 and 0.05106 | RLU (Time (s) 0): 0 RLU | RLU (Time (s) 2 (Taurocholic Acid 2.016)): 5.076 RLU | RLU (Time (s) 4 (Taurocholic Acid 4.016)): -5.108 RLU | RLU (Time (s) 6 (Taurocholic Acid 6.016)): -10.1397 RLU | RLU (Time (s) 8 (Taurocholic Acid 8.016)): -25.9369 RLU | RLU (Time (s) 12 (Taurocholic Acid 12.016)): -47.2431 RLU | RLU (Time (s) 14 (Taurocholic Acid 14.016)): -37.8259 RLU | RLU (Time (s) 16 (Taurocholic Acid 16.016)): -67.1139 RLU | RLU (Time (s) 18 (Taurocholic Acid 18.016)): -63.8827 RLU | RLU (Time (s) 18.797 (Chenodeoxycholic Acid 18.765)): -68.311 RLU | RLU (Time (s) 20.797 (Chenodeoxycholic Acid 20.781)): -66.196 RLU | RLU (Time (s) 22.797 (Chenodeoxycholic Acid 22.781)): -50.0226 RLU | RLU (Time (s) 24.797 (Chenodeoxycholic Acid 24.781)): -48.2767 RLU | RLU (Time (s) 26.797 (Chenodeoxycholic Acid 26.781)): -41.6616 RLU | RLU (Time (s) 28.797 (Chenodeoxycholic Acid 28.781)): -45.6719 RLU | RLU (Time (s) 30.797 (Chenodeoxycholic Acid 30.781)): -13.6241 RLU | RLU (Time (s) 32.797 (Chenodeoxycholic Acid 32.781)): 14.5625 RLU | RLU (Time (s) 34.797 (Chenodeoxycholic Acid 34.781)): 34.5332 RLU | RLU (Time (s) 36.797 (Chenodeoxycholic Acid 36.781)): 37.8124 RLU | RLU (Time (s) 38.797 (Chenodeoxycholic Acid 38.781)): 50.8625 RLU | RLU (Time (s) 40.797 (Chenodeoxycholic Acid 40.781)): 58.2474 RLU | RLU (Time (s) 42.797 (Chenodeoxycholic Acid 42.781)): 67.9279 RLU | RLU (Time (s) 44.797 (Chenodeoxycholic Acid 44.781)): 76.8016 RLU | RLU (Time (s) 46.797 (Chenodeoxycholic Acid 46.781)): 99.8168 RLU | RLU (Time (s) 48.797 (Chenodeoxycholic Acid 48.781)): 113.593 RLU | RLU (Time (s) 50.797 (Chenodeoxycholic Acid 50.781)): 125.702 RLU | RLU (Time (s) 52.797 (Chenodeoxycholic Acid 52.781)): 143.488 RLU | RLU (Time (s) 54.797 (Chenodeoxycholic Acid 54.781)): 148.335 RLU | RLU (Time (s) 56.797 (Chenodeoxycholic Acid 56.781)): 163.155 RLU | RLU (Time (s) 58.797 (Chenodeoxycholic Acid 58.781)): 176.389 RLU | RLU (Time (s) 60.797 (Chenodeoxycholic Acid 60.781)): 197.723 RLU | RLU (Time (s) 62.797 (Chenodeoxycholic Acid 62.781)): 213.291 RLU | RLU (Time (s) 64.797 (Chenodeoxycholic Acid 64.781)): 213.968 RLU | RLU (Time (s) 66.797 (Chenodeoxycholic Acid 66.781)): 225.512 RLU | RLU (Time (s) 68.797 (Chenodeoxycholic Acid 68.781)): 237.861 RLU | RLU (Time (s) 70.797 (Chenodeoxycholic Acid 70.781)): 234.615 RLU | RLU (Time (s) 72.797 (Chenodeoxycholic Acid 72.781)): 231.58 RLU | RLU (Time (s) 74.797 (Chenodeoxycholic Acid 74.781)): 268.946 RLU | RLU (Time (s) 76.797 (Chenodeoxycholic Acid 76.781)): 267.933 RLU | RLU (Time (s) 78.797 (Chenodeoxycholic Acid 78.781)): 291.733 RLU | RLU (Time (s) 80.797 (Chenodeoxycholic Acid 80.781)): 290.533 RLU | RLU (Time (s) 82.797 (Chenodeoxycholic Acid 82.781)): 307.412 RLU | RLU (Time (s) 84.797 (Chenodeoxycholic Acid 84.781)): 297.633 RLU | RLU (Time (s) 86.797 (Chenodeoxycholic Acid 86.781)): 303.737 RLU | RLU (Time (s) 88.797 (Chenodeoxycholic Acid 88.781)): 299.661 RLU | RLU (Time (s) 90.797 (Chenodeoxycholic Acid 90.781)): 303.944 RLU | RLU (Time (s) 92.797 (Chenodeoxycholic Acid 92.781)): 328.349 RLU | RLU (Time (s) 94.797 (Chenodeoxycholic Acid 94.781)): 307.307 RLU | RLU (Time (s) 96.797 (Chenodeoxycholic Acid 96.781)): 314.559 RLU | RLU (Time (s) 98.797 (Chenodeoxycholic Acid 98.781)): 326.967 RLU | RLU (Time (s) 100.797 (Chenodeoxycholic Acid 100.781)): 302.894 RLU | RLU (Time (s) 102.797 (Chenodeoxycholic Acid 102.781)): 324.498 RLU | RLU (Time (s) 104.797 (Chenodeoxycholic Acid 104.781)): 347.898 RLU | RLU (Time (s) 106.797 (Chenodeoxycholic Acid 106.781)): 338.946 RLU | RLU (Time (s) 108.797 (Chenodeoxycholic Acid 108.781)): 361.614 RLU | RLU (Time (s) 110.797 (Chenodeoxycholic Acid 110.781)): 335.334 RLU | RLU (Time (s) 112.797 (Chenodeoxycholic Acid 112.781)): 367.933 RLU | RLU (Time (s) 114.797 (Chenodeoxycholic Acid 114.781)): 388.996 RLU | RLU (Time (s) 116.797 (Chenodeoxycholic Acid 116.781)): 373.414 RLU | RLU (Time (s) 118.797 (Chenodeoxycholic Acid 118.781)): 374.133 RLU | RLU (Time (s) 120.797 (Chenodeoxycholic Acid 120.781)): 378.298 RLU | RLU (Time (s) 122.797 (Chenodeoxycholic Acid 122.781)): 394.755 RLU | RLU (Time (s) 124.797 (Chenodeoxycholic Acid 124.781)): 385.131 RLU | RLU (Time (s) 126.797 (Chenodeoxycholic Acid 126.781)): 394.257 RLU | RLU (Time (s) 128.797 (Chenodeoxycholic Acid 128.781)): 394.724 RLU | RLU (Time (s) 130.797 (Chenodeoxycholic Acid 130.781)): 379.935 RLU | RLU (Time (s) 132.797 (Chenodeoxycholic Acid 132.781)): 394.817 RLU | RLU (Time (s) 134.797 (Chenodeoxycholic Acid 134.781)): 375.334 RLU | RLU (Time (s) 136.797 (Chenodeoxycholic Acid 136.781)): 397.788 RLU | RLU (Time (s) 137.562 (Taurocholic Acid 137.563, Chenodeoxycholic Acid 137.546)): 382.953 RLU | RLU (Time (s) 143.578 (Taurocholic Acid 143.563, Chenodeoxycholic Acid 143.546)): 394.002 RLU | RLU (Time (s) 149.578 (Taurocholic Acid 149.563, Chenodeoxycholic Acid 149.546)): 363.524 RLU | RLU (Time (s) 155.578 (Taurocholic Acid 155.563, Chenodeoxycholic Acid 155.546)): 370.686 RLU | RLU (Time (s) 161.578 (Taurocholic Acid 161.563, Chenodeoxycholic Acid 161.546)): 390.532 RLU | RLU (Time (s) 167.578 (Taurocholic Acid 167.563, Chenodeoxycholic Acid 167.546)): 378.911 RLU | RLU (Time (s) 173.578 (Taurocholic Acid 173.563, Chenodeoxycholic Acid 173.546)): 356.99 RLU | RLU (Time (s) 179.578 (Taurocholic Acid 179.563, Chenodeoxycholic Acid 179.546)): 351.344 RLU | RLU (Time (s) 191.578 (Taurocholic Acid 191.563, Chenodeoxycholic Acid 191.546)): 317.716 RLU | RLU (Time (s) 197.578 (Taurocholic Acid 197.563, Chenodeoxycholic Acid 197.546)): 291.899 RLU | RLU (Time (s) 209.578 (Taurocholic Acid 209.563, Chenodeoxycholic Acid 209.546)): 252.636 RLU | RLU (Time (s) 221.578 (Taurocholic Acid 221.563, Chenodeoxycholic Acid 221.546)): 195.665 RLU | RLU (Time (s) 233.578 (Taurocholic Acid 233.563, Chenodeoxycholic Acid 233.546)): 155.879 RLU | RLU (Time (s) 239.578 (Taurocholic Acid 239.563, Chenodeoxycholic Acid 239.546)): 121.06 RLU | RLU (Time (s) 245.578 (Taurocholic Acid 245.563, Chenodeoxycholic Acid 245.546)): 124.983 RLU | RLU (Time (s) 293.578 (Taurocholic Acid 293.563, Chenodeoxycholic Acid 293.546)): 26.9674 RLU | RLU (Time (s) 299.578 (Taurocholic Acid 299.563, Chenodeoxycholic Acid 299.546)): 2.882 RLU | RLU (Time (s) 305.578 (Taurocholic Acid 305.563, Chenodeoxycholic Acid 305.546)): 10.8603 RLU | RLU (Time (s) 311.578 (Taurocholic Acid 311.563, Chenodeoxycholic Acid 311.546)): -14.8461 RLU | RLU (Time (s) 317.578 (Taurocholic Acid 317.563, Chenodeoxycholic Acid 317.546)): -4.053 RLU | RLU (Time (s) 323.578 (Taurocholic Acid 323.563, Chenodeoxycholic Acid 323.546)): -64.2935 RLU | RLU (Time (s) 329.578 (Taurocholic Acid 329.563, Chenodeoxycholic Acid 329.546)): -47.603 RLU | RLU (Time (s) 335.578 (Taurocholic Acid 335.563, Chenodeoxycholic Acid 335.546)): -52.8312 RLU | RLU (Time (s) 341.578 (Taurocholic Acid 341.563, Chenodeoxycholic Acid 341.546)): -81.682 RLU | RLU (Time (s) 347.578 (Taurocholic Acid 347.563, Chenodeoxycholic Acid 347.546)): -84.764 RLU | RLU (Time (s) 353.578 (Taurocholic Acid 353.563, Chenodeoxycholic Acid 353.546)): -78.8648 RLU | RLU (Time (s) 359.578 (Taurocholic Acid 359.563, Chenodeoxycholic Acid 359.546)): -73.3268 RLU | Activation threshold concentration TAS2R14 (lowest concentration with significantly increased fluorescence vs empty vector (p < 0.01)): 0.3 µM
